Laboratory results taken from PubChem BioAssay AID1963440 (Molecular Pharmacology Branch, DTP, NCI, 2024).

Test system: NCI-H1417 complex spheroids, growth % test/control
Experiment: Anticancer human tumor NCI-H1417 cell line growth inhibition [Asc];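 further: spheroids exposed to compounds for 7 days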;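 on viability, T/C: 100% = DMSO vehicle control wells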
Settings: for IC50: curve of first compound; for viability, T/C: stronger effect = lower value
Method in brief: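 Stromal components (HUVEC and hMSC) are co-assembled with the cancer cells into multicellular spheroids. Drugs are then added singly or paired, at concentrations falling by half-log increments from a clinically achievable maximum, capped at 10 microM without known Cmax.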

[1] = second compound 0.1 µM, first compound 0.0316 µM
[2] = second compound 0.1 µM, first compound 0.1 µM
[3] = second compound 0.316 µM, first compound 0.0316 µM
[4] = second compound 0.316 µM, first compound 0.1 µM
[5] = second compound 1 µM, first compound 0.0316 µM
[6] = second compound 1 µM, first compound 0.1 µM
[7] = second compound 3.16 µM, first compound 0.0316 µM
[8] = second compound 3.16 µM, first compound 0.1 µM
[9] = second compound 10 µM, first compound 0.0316 µM
[10] = second compound 10 µM, first compound 0.1 µM
[11] = second compound 0.03 µM, first compound 0.00316 µM
[12] = second compound 0.03 µM, first compound 0.01 µM
[13] = second compound 0.03 µM, first compound 0.0316 µM
[14] = second compound 0.03 µM, first compound 0.1 µM
[15] = second compound 0.03 µM, first compound 0.316 µM
[16] = second compound 0.03 µM, first compound 1 µM
[17] = second compound 0.0949 µM, first compound 0.00316 µM
[18] = second compound 0.0949 µM, first compound 0.01 µM
[19] = second compound 0.0949 µM, first compound 0.0316 µM
[20] = second compound 0.0949 µM, first compound 0.1 µM
[21] = second compound 0.0949 µM, first compound 0.316 µM
[22] = second compound 0.0949 µM, first compound 1 µM
[23] = second compound 0.3 µM, first compound 0.00316 µM
[24] = second compound 0.3 µM, first compound 0.01 µM
[25] = second compound 0.3 µM, first compound 0.0316 µM
[26] = second compound 0.3 µM, first compound 0.1 µM
[27] = second compound 0.3 µM, first compound 0.316 µM
[28] = second compound 0.3 µM, first compound 1 µM
[29] = second compound 0.949 µM, first compound 0.00316 µM
[30] = second compound 0.949 µM, first compound 0.01 µM
[31] = second compound 0.949 µM, first compound 0.0316 µM
[32] = second compound 0.949 µM, first compound 0.1 µM
[33] = second compound 0.949 µM, first compound 0.316 µM
[34] = second compound 0.949 µM, first compound 1 µM
[35] = second compound 3 µM, first compound 0.00316 µM
[36] = second compound 3 µM, first compound 0.01 µM
[37] = second compound 3 µM, first compound 0.0316 µM
[38] = second compound 3 µM, first compound 0.1 µM
[39] = second compound 3 µM, first compound 0.316 µM
[40] = second compound 3 µM, first compound 1 µM

C#Cc1c(F)ccc2cc(O)cc(-c3ncc4c(N5CC6CCC(C5)N6)nc(OCC56CCCN5CC(F)C6)nc4c3F)c12 (stereo not given) + Cc1c(S(C)(=O)=O)c(-c2cc(F)cc(N3CCN(c4ccc(NS(=O)(=O)c5ccc(NC(CCN6CCC(C(=O)OCCCP(=O)(O)O)CC6)CSc6ccccc6)c(S(=O)(=O)C(F)(F)F)c5)cc4)CC3)c2)c(-c2ccc(Cl)cc2)n1C(C)C
IC50 (second compound 0.1 µM): 5740 nM
IC50 (second compound 0.316 µM): < 31.6 nM
IC50 (second compound 1 µM): < 31.6 nM
IC50 (second compound 3.16 µM): < 31.6 nM
IC50 (second compound 10 µM): < 31.6 nM
viability, T/C [1]: 72%
viability, T/C [2]: 83.9%
viability, T/C (second compound 0.1 µM, first compound 0.316 µM): 71.8%
viability, T/C (second compound 0.1 µM, first compound 1 µM): 75.8%
viability, T/C (second compound 0.1 µM, first compound 3.16 µM): 64.7%
viability, T/C (second compound 0.1 µM, first compound 10 µM): 35.7%
viability, T/C [3]: 42.6%
viability, T/C [4]: 48%
viability, T/C (second compound 0.316 µM, first compound 0.316 µM): 34.8%
viability, T/C (second compound 0.316 µM, first compound 1 µM): 20.9%
viability, T/C (second compound 0.316 µM, first compound 3.16 µM): 12.9%
viability, T/C (second compound 0.316 µM, first compound 10 µM): 5.66%
viability, T/C [5]: 12%
viability, T/C [6]: 10.5%
viability, T/C (second compound 1 µM, first compound 0.316 µM): 7.98%
viability, T/C (second compound 1 µM, first compound 1 µM): 5.31%
viability, T/C (second compound 1 µM, first compound 3.16 µM): 3.23%
viability, T/C (second compound 1 µM, first compound 10 µM): 4.53%
viability, T/C [7]: 3.15%
viability, T/C [8]: 2.9%
viability, T/C (second compound 3.16 µM, first compound 0.316 µM): 3.53%
viability, T/C (second compound 3.16 µM, first compound 1 µM): 1.96%
viability, T/C (second compound 3.16 µM, first compound 3.16 µM): 1.85%
viability, T/C (second compound 3.16 µM, first compound 10 µM): 2.61%
viability, T/C [9]: 2.05%
viability, T/C [10]: 2.06%
viability, T/C (second compound 10 µM, first compound 0.316 µM): 2.12%
viability, T/C (second compound 10 µM, first compound 1 µM): 1.68%
viability, T/C (second compound 10 µM, first compound 3.16 µM): 1.15%
viability, T/C (second compound 10 µM, first compound 10 µM): 2.22%

CNC(C)C(=O)NC1CN(S(=O)(=O)c2cccc(S(=O)(=O)N3CCC4CCC(C(=O)NC(c5ccccc5)c5ccccc5)N4C(=O)C(NC(=O)C(C)NC)C3)c2)CCC2CCC(C(=O)NC(c3ccccc3)c3ccccc3)N2C1=O (stereo not given) + CCN1C(C(=O)NC23CCC(C(=O)O)(CC2)CC3)C(c2cccc(Cl)c2F)C2(C(=O)Nc3cc(Cl)ccc32)C12CCCCC2
IC50 (second compound 0.03 µM): > 1000 nM
IC50 (second compound 0.0949 µM): > 1000 nM
IC50 (second compound 0.3 µM): > 1000 nM
IC50 (second compound 0.949 µM): > 1000 nM
IC50 (second compound 3 µM): > 1000 nM
viability, T/C [11]: 121%
viability, T/C [12]: 107%
viability, T/C [13]: 112%
viability, T/C [14]: 111%
viability, T/C [15]: 99.8%
viability, T/C [16]: 109%
viability, T/C [17]: 101%
viability, T/C [18]: 94.8%
viability, T/C [19]: 108%
viability, T/C [20]: 91.5%
viability, T/C [21]: 101%
viability, T/C [22]: 115%
viability, T/C [23]: 116%
viability, T/C [24]: 118%
viability, T/C [25]: 94.6%
viability, T/C [26]: 104%
viability, T/C [27]: 105%
viability, T/C [28]: 100%
viability, T/C [29]: 97%
viability, T/C [30]: 98.9%
viability, T/C [31]: 93.4%
viability, T/C [32]: 97.5%
viability, T/C [33]: 87.1%
viability, T/C [34]: 91.1%
viability, T/C [35]: 97.2%
viability, T/C [36]: 98.8%
viability, T/C [37]: 91.8%
viability, T/C [38]: 90.8%
viability, T/C [39]: 84.2%
viability, T/C [40]: 99.4%

O=C(c1ccc(F)c(F)c1Nc1ccc(I)cc1F)N1CC(O)([C@@H]2CCCCN2)C1 + CCN1C(C(=O)NC23CCC(C(=O)O)(CC2)CC3)C(c2cccc(Cl)c2F)C2(C(=O)Nc3cc(Cl)ccc32)C12CCCCC2
IC50 (second compound 0.03 µM): > 1000 nM
IC50 (second compound 0.0949 µM): > 1000 nM
IC50 (second compound 0.3 µM): > 1000 nM
IC50 (second compound 0.949 µM): > 1000 nM
IC50 (second compound 3 µM): > 1000 nM
viability, T/C [11]: 85.9%
viability, T/C [12]: 91.6%
viability, T/C [13]: 88.9%
viability, T/C [14]: 85.9%
viability, T/C [15]: 88.2%
viability, T/C [16]: 81.2%
viability, T/C [17]: 101%
viability, T/C [18]: 89%
viability, T/C [19]: 97.5%
viability, T/C [20]: 84.1%
viability, T/C [21]: 88.8%
viability, T/C [22]: 88.8%
viability, T/C [23]: 94.6%
viability, T/C [24]: 76.9%
viability, T/C [25]: 91.6%
viability, T/C [26]: 89.6%
viability, T/C [27]: 85.4%
viability, T/C [28]: 89.5%
viability, T/C [29]: 79.4%
viability, T/C [30]: 87.8%
viability, T/C [31]: 85%
viability, T/C [32]: 87.5%
viability, T/C [33]: 78.8%
viability, T/C [34]: 87.8%
viability, T/C [35]: 86.7%
viability, T/C [36]: 87.5%
viability, T/C [37]: 78.5%
viability, T/C [38]: 89%
viability, T/C [39]: 90.7%
viability, T/C [40]: 77%

NC1CCC(NC2CC2c2ccccc2)CC1 (stereo not given) + Cc1c(S(C)(=O)=O)c(-c2cc(F)cc(N3CCN(c4ccc(NS(=O)(=O)c5ccc(NC(CCN6CCC(C(=O)OCCCP(=O)(O)O)CC6)CSc6ccccc6)c(S(=O)(=O)C(F)(F)F)c5)cc4)CC3)c2)c(-c2ccc(Cl)cc2)n1C(C)C
IC50 (second compound 0.1 µM): > 100 nM
IC50 (second compound 0.316 µM): < 0.316 nM
IC50 (second compound 1 µM): < 0.316 nM
IC50 (second compound 3.16 µM): < 0.316 nM
IC50 (second compound 10 µM): < 0.316 nM
viability, T/C (second compound 0.1 µM, first compound 0.000316 µM): 66.5%
viability, T/C (second compound 0.1 µM, first compound 0.001 µM): 69%
viability, T/C (second compound 0.1 µM, first compound 0.00316 µM): 61.8%
viability, T/C (second compound 0.1 µM, first compound 0.01 µM): 65.1%
viability, T/C [1]: 65.7%
viability, T/C [2]: 64.3%
viability, T/C (second compound 0.316 µM, first compound 0.000316 µM): 45.1%
viability, T/C (second compound 0.316 µM, first compound 0.001 µM): 43.2%
viability, T/C (second compound 0.316 µM, first compound 0.00316 µM): 34.7%
viability, T/C (second compound 0.316 µM, first compound 0.01 µM): 40.1%
viability, T/C [3]: 38.8%
viability, T/C [4]: 38.8%
viability, T/C (second compound 1 µM, first compound 0.000316 µM): 12.5%
viability, T/C (second compound 1 µM, first compound 0.001 µM): 14.6%
viability, T/C (second compound 1 µM, first compound 0.00316 µM): 16.3%
viability, T/C (second compound 1 µM, first compound 0.01 µM): 11.2%
viability, T/C [5]: 16.2%
viability, T/C [6]: 15.7%
viability, T/C (second compound 3.16 µM, first compound 0.000316 µM): 1.88%
viability, T/C (second compound 3.16 µM, first compound 0.001 µM): 1.85%
viability, T/C (second compound 3.16 µM, first compound 0.00316 µM): 2.09%
viability, T/C (second compound 3.16 µM, first compound 0.01 µM): 1.09%
viability, T/C [7]: 1.14%
viability, T/C [8]: 2.64%
viability, T/C (second compound 10 µM, first compound 0.000316 µM): 1.53%
viability, T/C (second compound 10 µM, first compound 0.001 µM): 1.86%
viability, T/C (second compound 10 µM, first compound 0.00316 µM): 1.9%
viability, T/C (second compound 10 µM, first compound 0.01 µM): 1.64%
viability, T/C [9]: 2.09%
viability, T/C [10]: 1.63%
